Results as given in US9618507B2, “Methods of treating rheumatoid arthritis” (Betanien Hospital, priority 2014, dated 2017).
Where a SMILES comes first, the peptide text is derived from it. [ ]: non-standard residue; d: D form. dPhe(4-Cl) = N[C@H](Cc1ccc(Cl)cc1)C(=O)O; d2Nal = N[C@H](Cc1ccc2ccccc2c1)C(=O)O; dCit = NC(=O)NCCC[C@@H](N)C(=O)O; d3Pal = N[C@H](Cc1cccnc1)C(=O)O

Assays:
Format in all cases: in vivo, human
[1] = tested on: RA patients with high gonadotropin levels; assay: Example 2: AGRA post hoc analyses in patients with high gonadotropin levels, disease activity (DAS28-CRP, ACR, EULAR)
Source text: Post hoc analyses is described herein.
Key inclusion criteria for AGRA were males or females aged ≧18 years with RA that had been diagnosed on the basis of the American College of Rheumatology (ACR) 1987 revised criteria (Arnett F C, et al., Arthritis Rheum 1988; 31:315-24); with active, and moderate or severe disease defined as a Disease Activity Score for 28-joint counts based on C-reactive protein (Wells G, et al., Ann Rheum Dis 2009; 68:954-60) (DAS28-CRP) >3.2 and at least two of the following criteria: ≧6 painful joints, ≧3 swollen joints, ESR ≧20 mm/h, and a C-reactive protein ≧10 mg/L). Prednisolone ≦7.5 mg/day was permitted if stable for at least 4 weeks prior to baseline; NSAIDs were permitted if stable for at least 2 weeks prior to baseline; and disease-modifying anti-rheumatic drugs (DMARDs) were permitted if stable for at least 8 weeks prior to baseline. Tumour necrosis factor-α (TNF-α) inhibitor or other biological agents were not permitted during the trial or within 4 weeks prior to inclusion. Infliximab/adalimumab was not permitted at least 3 months prior to inclusion; Rituximab was not permitted at least 6 months prior to inclusion. Intramuscular, intra-articular or intravenous corticosteroids; any hormone replacement therapy; or oral contraception was not permitted during the trial or within 4 weeks prior to inclusion.
In these post hoc analyses, a subgroup of AGRA patients with high gonadotropin levels were examined. There is no established cut-off for high LH and/or FSH. Therefore, levels above the median were defined as high (e.g., LH>17.3 IU/L and FSH>34.6 IU/L).
The intention-to-treat population was predefined as all randomised patients who received any study-drug injections. Missing values were <1% and could, as predefined, be imputed with the last-observation-carried-forward. The assumptions of normality needed for analyses were approximately valid. All statistical tests were two-sided (α=0.05) and performed with Stata 12 and StatXact 9. Analyses were performed by an offsite statistician who received locked databases from blinded investigators and laboratories, and the allocation key from the offsite central office.

LH, FSH, cortisol = assay: Example 1: serum hormone assays (LH, FSH, cortisol)
Experimental: (§1) Ethical committee approval was obtained. […] Safety and efficacy visits, with blood sampling, were between 0730 and 0930 h on days 1 (baseline), 2, 3, 4, 5 (visit 5a), 10, and 15. There was an additional visit (visit 5b) between 1930 and 2130 h when maximum GnRH suppression was anticipated.
Non-competitive immunofluorometric assays were used for the quantitative determination of serum LH and FSH (Dissociation Enhanced Lanthanide Fluoroimmunoassay [DELFIA] kit, Turku, Finland). A competitive immunofluorometric assay was used for the determination of serum oestradiol (DELFIA kit, Turku, Finland). A competitive radioimmunoassay was used for the quantitative determination of serum testosterone (Orion Diagnostica. Espoo, Finland). A competitive Iuminoimmunoassay was used for the quantitative determination of serum cortisol (Immulite 2000, California, USA).

RA patients = assay: Example 1: randomized, double-blind, placebo-controlled study, disease activity (DAS28-CRP, ACR responses, core set measures)
Experimental: In this randomized, double-blind, placebo-controlled, single-centre study, males and females aged ≧18 years with RA according to the 1987 revised American College of Rheumatology (ACR) criteria, and with a 28-joint Disease Activity Score based on C-reactive protein (DAS28-CRP)>3.2 were enrolled.
as §1
Predefined secondary end-points included the baseline adjusted between-group difference inTNF-α, ACR20/50/70 responses, European League Against Rheumatism (EULAR) responses, DAS28-CRP <2.6 and ≦3.2, and adverse events.
Menstruating women could only enter the study in the early follicular phase of their menstrual cycle. The concomitant use of stable doses of disease-modifying anti-rheumatic drugs (DMARDs) for at least 8 weeks, stable prednisolone ≦7.5 mg daily for at least 4 weeks, and stable non-steroidal anti-inflammatory drugs (NSAIDs) for at least 2 weeks was allowed if these doses were continued throughout the study. Key exclusion criteria were as follows: pregnancy or breastfeeding females; corticosteroid injections within the trial or 4 weeks prior to screening; biological agents were not permitted during the trial or within 4 weeks prior to inclusion in the trial (with the exception of infliximab or adalimumab which were not permitted within 3 months prior to inclusion in the trial; and rituximab which was not permitted within 6 months prior to inclusion in the trial). A history of hormone-dependent cancers ever or non-hormone-dependent cancers within 5 years prior to screening: infections requiring intravenous antibiotic treatment within 30 days, or oral antibiotics within 14 days prior to enrolment; significant renal or hepatic impairment; and any treatment with hormone replacement therapy or oral contraception were also exclusion criteria.
The Newcombe hybrid score interval was used to estimate 95% confidence intervals (CI) for the difference between proportions (Fagerland M W, et al., Stat Methods Med Res 2011). No adjustments for multiple analyses were made, owing to the highly correlated variables. All clinical, biochemical, and safety data were analyzed by an intention-to-treat analysis. Only predefined endpoints are presented. The intention-to-treat population was predefined in the protocol as all randomized patients who received any injections of study drug. Missing values were <1% and could, as predefined, be imputed with the last observation carried forward. The assumptions of normality needed for analyses were approximately valid. The Spearman rank correlation coefficient (Spearman's rho) was used to estimate the association between pairs of continuous variables.

[2] = high gonadotropin patients, by day 5, placebo 0%

## CC(=O)N[C@H](Cc1ccc2ccccc2c1)C(=O)N[C@H](Cc1ccc(Cl)cc1)C(=O)N[C@H](Cc1cccnc1)C(=O)N[C@@H](CO)C(=O)N[C@@H](Cc1ccc(O)cc1)C(=O)N[C@H](CCCNC(N)=O)C(=O)N[C@@H](CC(C)C)C(=O)N[C@@H](CCCNC(=N)N)C(=O)N1CCC[C@H]1C(=O)N[C@H](C)C(N)=O [cetrorelix] (Ac-[d2Nal][dPhe(4-Cl)][d3Pal]SY[dCit]LRP[dA]-NH2)
[1]; FIG. 5B-E
  reductions of DAS28-CRP and cytokines compared to placebo, high gonadotropin groups (N=53) versus the rest of the AGRA population (N=46): greater reductions
[1]; [2]
  patients achieving DAS28-CRP<2.6: 15%
  patients achieving DAS28-CRP≦3.2: 22%
  patients achieving EULAR 'Good-Responses': 19%
[1]; high gonadotropin patients, by day 5, placebo 19%
  patients achieving ACR20 responses: 44%
[1]; high gonadotropin patients, cetrorelix N=27, 95% CI −1.3 to −0.67, placebo −0.40
  DAS28-CRP change by day 5: −1.0
[1]; high gonadotropin patients, day 5, 95% CI 0.13 to 0.93, P=0.010
  DAS28-CRP baseline-adjusted between-group difference: 0.53
[1]; high gonadotropin patients, numbers too small for valid conclusions
  ACR50 and ACR70 responses compared with placebo: More patients reached ACR50 and ACR70 responses
[1]; patients who received cetrorelix, P=0.73
  DAS28-CRP reduction, prednisolone users (N=13) vs non-users (N=14): similar
LH, FSH, cortisol; all patients allocated to cetrorelix, onset
  LH and FSH levels: reduced as early as day 2
LH, FSH, cortisol; all patients, by day 5, p 0.80
  Cortisol changes between groups: not significantly different between groups
RA patients; all patients, baseline adjusted, day 5, 95% CI −0.04 to 0.57, p 0.091
  DAS28-CRP between-group difference vs placebo: 0.26
RA patients; all patients, by day 5, placebo 0%
  patients achieving DAS28-CRP<2.6: 13%
RA patients; all patients, by day 5, placebo 18%
  patients achieving ACR20 responses: 40%
RA patients; all patients, cetrorelix n=48, 5 mg/day s.c. days 1-2, 3 mg/day days 3-5, day 5
  DAS28-CRP reduction by day 5: 0.82
RA patients; all patients, day 5, FIG. 1A
  ACR50/70 responses compared with placebo: More patients reached ACR50/70 responses
RA patients; all patients, except physician global assessment
  core set measures of disease activity compared with placebo: non-significant greater improvements
RA patients; cetrorelix group, p 0.40
  DAS28-CRP reduction, prednisolone users (n 24) vs non-users (n 24): did not differ
